Measurements: PubChem BioAssay (NCI)
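Exposure lasted 48 hours, with cells grown in 96-well plates and compounds tested at five concentrations. GI50: concentration for 50% inhibition of growth. The concentration for full growth arrest is given as TGI.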

Assays:
Test in all cases: NCI-60 cell line screen, 48 h
HT29 colon = tested on: HT29 colon
MCF7 breast = tested on: MCF7 breast
SK-MEL-5 melanoma = tested on: SK-MEL-5 melanoma
MDA-MB-231 breast = tested on: MDA-MB-231 breast
CCRF-CEM leukemia = tested on: CCRF-CEM leukemia
SNB-75 CNS = tested on: SNB-75 CNS
NCI/ADR-RES ovarian = tested on: NCI/ADR-RES ovarian
T-47D breast = tested on: T-47D breast
OVCAR-3 ovarian = tested on: OVCAR-3 ovarian
KM12 colon = tested on: KM12 colon
LOX IMVI melanoma = tested on: LOX IMVI melanoma
UO-31 renal = tested on: UO-31 renal
RPMI-8226 leukemia = tested on: RPMI-8226 leukemia
HCT-116 colon = tested on: HCT-116 colon
EKVX NSCLC = tested on: EKVX NSCLC
OVCAR-8 ovarian = tested on: OVCAR-8 ovarian
HS 578T breast = tested on: HS 578T breast
A549 NSCLC = tested on: A549 NSCLC
COLO 205 colon = tested on: COLO 205 colon
SR leukemia = tested on: SR leukemia
K-562 leukemia = tested on: K-562 leukemia
OVCAR-4 ovarian = tested on: OVCAR-4 ovarian
MOLT-4 leukemia = tested on: MOLT-4 leukemia
NCI-H226 lung = tested on: NCI-H226 lung
NCI-H23 lung = tested on: NCI-H23 lung
SNB-19 CNS = tested on: SNB-19 CNS
U251 CNS = tested on: U251 CNS
HL-60(TB) leukemia = tested on: HL-60(TB) leukemia
SF-295 CNS = tested on: SF-295 CNS
OVCAR-5 ovarian = tested on: OVCAR-5 ovarian
SW-620 colon = tested on: SW-620 colon
ACHN renal = tested on: ACHN renal
SK-MEL-28 melanoma = tested on: SK-MEL-28 melanoma
DU-145 prostate = tested on: DU-145 prostate
UACC-257 melanoma = tested on: UACC-257 melanoma
NCI-H460 lung = tested on: NCI-H460 lung
IGROV1 ovarian = tested on: IGROV1 ovarian
SF-539 CNS = tested on: SF-539 CNS
TK-10 renal = tested on: TK-10 renal
MDA-MB-435 = tested on: MDA-MB-435
SF-268 CNS = tested on: SF-268 CNS
MALME-3M melanoma = tested on: MALME-3M melanoma
RXF 393 renal = tested on: RXF 393 renal
SN12C renal = tested on: SN12C renal
SK-OV-3 ovarian = tested on: SK-OV-3 ovarian
HCT-15 colon = tested on: HCT-15 colon
HOP-62 NSCLC = tested on: HOP-62 NSCLC
UACC-62 melanoma = tested on: UACC-62 melanoma
HCC-2998 colon = tested on: HCC-2998 colon
A498 renal = tested on: A498 renal
786-0 renal = tested on: 786-0 renal
M14 melanoma = tested on: M14 melanoma
HOP-92 NSCLC = tested on: HOP-92 NSCLC

Which GI50 (HT29 colon) does the source give for `Nc1nc(Cl)cc(OCC2(O)CC(COC(=O)c3ccccc3)C2)n1` (stereo not given) here?
The GI50 was 70 µM.

And the GI50 (MCF7 breast)?
The GI50 was 47.7 µM.

What about the GI50 (SK-MEL-5 melanoma) of the same molecule?
The GI50 was 37.3 µM.

And the GI50 (MDA-MB-231 breast)?
The GI50 was 48.1 µM.

And the GI50 (CCRF-CEM leukemia)?
Its GI50 is 47.9 µM.

And the GI50 (SNB-75 CNS)?
Its GI50 is 53 µM.

What about the GI50 (NCI/ADR-RES ovarian) of the same molecule?
Its GI50 is 39.5 µM.

What about the GI50 (T-47D breast) of the same molecule?
Its GI50 is 30.7 µM.

What about the GI50 (OVCAR-3 ovarian) of the same molecule?
Its GI50 is 82.2 µM.

What about the GI50 (KM12 colon) of the same molecule?
Its GI50 is 30.6 µM.

And the GI50 (LOX IMVI melanoma)?
Its GI50 is 76.1 µM.

And the GI50 (UO-31 renal)?
The GI50 was 91.5 µM.

What about the GI50 (RPMI-8226 leukemia) of the same molecule?
The GI50 was 85.5 µM.

What about the GI50 (HCT-116 colon) of the same molecule?
Its GI50 is 82.9 µM.

What about the GI50 (EKVX NSCLC) of the same molecule?
The GI50 was 13.2 µM.

What about the GI50 (OVCAR-8 ovarian) of the same molecule?
The GI50 was 71 µM.

And the GI50 (HS 578T breast)?
Its GI50 is 46.6 µM.

What about the GI50 (A549 NSCLC) of the same molecule?
Its GI50 is 67.8 µM.

What about the GI50 (COLO 205 colon) of the same molecule?
Its GI50 is 46.6 µM.

And the GI50 (SR leukemia)?
The GI50 was 32.1 µM.

What about the GI50 (K-562 leukemia) of the same molecule?
The GI50 was 40.3 µM.

What about the GI50 (OVCAR-4 ovarian) of the same molecule?
Its GI50 is 38.2 µM.

And the GI50 (MOLT-4 leukemia)?
Its GI50 is 26.9 µM.

What about the TGI (MOLT-4 leukemia) of the same molecule?
Its TGI is 83.7 µM.

What about the GI50 (NCI-H226 lung) of the same molecule?
Its GI50 is 81 µM.

And the GI50 (NCI-H23 lung)?
The GI50 was 51.8 µM.

And the GI50 (SNB-19 CNS)?
The GI50 was 34.1 µM.

And the GI50 (U251 CNS)?
The GI50 was 76.1 µM.

What about the GI50 (HL-60(TB) leukemia) of the same molecule?
Its GI50 is 58.4 µM.

And the GI50 (SF-295 CNS)?
Its GI50 is 78.5 µM.

With `CCN(CC)CCOC(NC(C)=O)(c1ccccc1)c1ccccc1` as the molecule, how does the TGI (HT29 colon) read?
The TGI was over 100 µM.

And the TGI (MCF7 breast)?
Its TGI is over 100 µM.

And the TGI (SK-MEL-5 melanoma)?
Its TGI is over 100 µM.

What about the TGI (MDA-MB-231 breast) of the same molecule?
Its TGI is over 100 µM.

And the TGI (OVCAR-5 ovarian)?
The TGI was over 100 µM.

And the TGI (SW-620 colon)?
Its TGI is over 100 µM.

And the TGI (CCRF-CEM leukemia)?
The TGI was over 100 µM.

And the TGI (SNB-75 CNS)?
Its TGI is over 100 µM.

And the TGI (NCI/ADR-RES ovarian)?
The TGI was over 100 µM.

What about the TGI (ACHN renal) of the same molecule?
Its TGI is over 100 µM.

And the TGI (SK-MEL-28 melanoma)?
The TGI was over 100 µM.

And the TGI (DU-145 prostate)?
Its TGI is over 100 µM.

What about the TGI (UACC-257 melanoma) of the same molecule?
The TGI was over 100 µM.

What about the TGI (T-47D breast) of the same molecule?
Its TGI is over 100 µM.

What about the TGI (NCI-H460 lung) of the same molecule?
Its TGI is over 100 µM.

And the TGI (KM12 colon)?
The TGI was over 100 µM.

And the TGI (IGROV1 ovarian)?
The TGI was over 100 µM.

And the TGI (UO-31 renal)?
The TGI was over 100 µM.

What about the TGI (SF-539 CNS) of the same molecule?
Its TGI is over 100 µM.

What about the TGI (TK-10 renal) of the same molecule?
The TGI was over 100 µM.

What about the TGI (RPMI-8226 leukemia) of the same molecule?
The TGI was over 100 µM.

And the TGI (HCT-116 colon)?
Its TGI is over 100 µM.

What about the TGI (EKVX NSCLC) of the same molecule?
The TGI was over 100 µM.

And the TGI (MDA-MB-435)?
The TGI was over 100 µM.

And the TGI (SF-268 CNS)?
The TGI was over 100 µM.

What about the TGI (MALME-3M melanoma) of the same molecule?
Its TGI is over 100 µM.

What about the TGI (OVCAR-8 ovarian) of the same molecule?
Its TGI is over 100 µM.

And the TGI (HS 578T breast)?
The TGI was over 100 µM.

And the TGI (RXF 393 renal)?
The TGI was over 100 µM.

What about the TGI (A549 NSCLC) of the same molecule?
The TGI was over 100 µM.

What about the TGI (COLO 205 colon) of the same molecule?
Its TGI is over 100 µM.

And the TGI (SN12C renal)?
Its TGI is over 100 µM.

And the TGI (SR leukemia)?
The TGI was over 100 µM.

What about the TGI (SK-OV-3 ovarian) of the same molecule?
The TGI was over 100 µM.

What about the TGI (OVCAR-4 ovarian) of the same molecule?
Its TGI is over 100 µM.

What about the TGI (HCT-15 colon) of the same molecule?
Its TGI is over 100 µM.

And the TGI (MOLT-4 leukemia)?
Its TGI is over 100 µM.

And the TGI (HOP-62 NSCLC)?
The TGI was over 100 µM.

And the TGI (UACC-62 melanoma)?
Its TGI is over 100 µM.

And the TGI (HCC-2998 colon)?
Its TGI is over 100 µM.

What about the TGI (NCI-H226 lung) of the same molecule?
Its TGI is over 100 µM.

And the TGI (NCI-H23 lung)?
Its TGI is over 100 µM.

And the TGI (SNB-19 CNS)?
The TGI was over 100 µM.

What about the TGI (U251 CNS) of the same molecule?
The TGI was over 100 µM.

And the TGI (HL-60(TB) leukemia)?
Its TGI is over 100 µM.

What about the TGI (A498 renal) of the same molecule?
The TGI was over 100 µM.

And the TGI (786-0 renal)?
The TGI was over 100 µM.

And the TGI (M14 melanoma)?
The TGI was over 100 µM.

And the TGI (SF-295 CNS)?
Its TGI is over 100 µM.

And the TGI (HOP-92 NSCLC)?
The TGI was over 100 µM.
